PubChem BioAssay (NCI)
Values joined by “and” are separate entries in the source; they are usually repeats but may differ in a detail not shown here. Identical values can stand only once.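 Protocol summary: plate cells (96-well), add compound at 5 concentrations, incubate 48 h, interpolate endpoints linearly. GI50: concentration for 50% inhibition of growth. TGI marks complete inhibition of growth.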

Tests used:
Test in all cases: NCI-60 cell line screen, 48 h
M14 melanoma = system: M14 melanoma
NCI-H226 lung = system: NCI-H226 lung
KM12 colon = system: KM12 colon
UO-31 renal = system: UO-31 renal
SF-268 CNS = system: SF-268 CNS
SW-620 colon = system: SW-620 colon
HCT-15 colon = system: HCT-15 colon
HT29 colon = system: HT29 colon
TK-10 renal = system: TK-10 renal
SNB-75 CNS = system: SNB-75 CNS

Row | SMILES | GI50 (M14 melanoma) | TGI (M14 melanoma) | GI50 (NCI-H226 lung) | TGI (NCI-H226 lung) [µM] | GI50 (KM12 colon) | TGI (KM12 colon) | GI50 (UO-31 renal) | TGI (UO-31 renal) | GI50 (SF-268 CNS) | TGI (SF-268 CNS) | GI50 (SW-620 colon) | TGI (SW-620 colon) | GI50 (HCT-15 colon) [µM] | TGI (HCT-15 colon) | GI50 (HT29 colon) | TGI (HT29 colon) | GI50 (TK-10 renal) | TGI (TK-10 renal) | GI50 (SNB-75 CNS) | TGI (SNB-75 CNS)
1 | O=C(NCCc1ccccc1)C(c1csc2ccccc12)N(C(=O)CCl)c1ccc(-c2cnco2)cc1 (stereo not given) | 1.38 µM | 2.83 µM | 1.07 µM | 3.43 | 0.291 µM | 0.898 µM | 0.0173 µM | 0.0354 µM | 0.362 µM | 0.958 µM | 0.391 µM | 1.29 µM | 0.596 | 1.84 µM | 0.257 µM | 1.06 µM | 1.75 µM | 3.21 µM | 0.502 µM | 0.99 µM
2 | Cc1cc(C)cc(NC(=O)CCC(=O)C2CCC/C2=N\NC(=O)C(=O)NN)c1 (stereo not given) |  | > 100 µM |  | > 100 |  | > 100 µM |  | > 100 µM |  | > 100 µM |  | > 100 µM |  | > 100 µM |  | > 100 µM |  | > 100 µM |  | > 100 µM
3 | CCCCCCCC(=O)SCC/C=C/[C@@H]1CC(=O)NCc2cccc(n2)CN(Cc2ccc(Cl)cc2)CC(=O)N[C@@H](C(C)C)C(=O)O1 | 9.1 µM | > 100 µM | 22 µM | > 100 | 9.4 µM | 65.1 µM | 6.27 µM | 48.9 µM | 20 µM | > 100 µM | 18 µM | > 100 µM | 20.1 | > 100 µM | 4.3 µM | > 100 µM | 2.81 µM | 23.6 µM | 5.74 µM | > 100 µM
4 | Cn1c(=O)c(C2c3ccccc3Oc3c2c(=O)n(C)c2ccccc32)c(O)c2ccccc21 (stereo not given) |  | > 100 µM |  | > 100 |  | > 100 µM |  | > 100 µM |  | > 100 µM |  | > 100 µM |  | > 100 µM |  | > 100 µM |  | 83.8 µM |  | > 100 µM
5 | COC(=O)CC[C@@H](NC(=O)C(C)NC(=O)COC1C(O)C(COC(=O)CCCCCCCCCCNC(=O)c2ccc([N+](=O)[O-])c3[nH]c4cc(Br)ccc4c(=O)c23)OC(OCc2ccccc2)C1NC(C)=O)C(N)=O (stereo not given in full) |  | > 100 µM |  | 98 |  | > 100 µM |  | > 100 µM |  | > 100 µM |  | > 100 µM |  | > 100 µM |  | > 100 µM |  | > 100 µM |  | > 100 µM
6 | c1cc(C2O[C@H]3CCCN3[C@@H]2c2ccncc2)ccn1 (stereo not given in full) |  | > 100 µM |  | > 100 |  | > 100 µM |  | > 100 µM |  | > 100 µM |  | > 100 µM |  | > 100 µM |  | > 100 µM |  | > 100 µM |  | > 100 µM
7 | O=C(O)C(=O)/C=C\c1ccc(Cl)cc1 |  | > 100 µM |  | > 100 |  | > 100 µM |  | > 100 µM |  | > 100 µM |  | 27 µM |  | > 100 µM |  | > 100 µM |  | > 100 µM |  | > 100 µM
8 | CCCCc1c2c(nc3c1CCc1cc(C=O)c(N)nc1-3)/C(=C/c1ccccc1)CCC2 |  | > 100 µM |  | > 100 |  | > 100 µM |  | > 100 µM |  | > 100 µM |  | > 100 µM |  | > 100 µM |  | > 100 µM |  | > 100 µM |  | > 100 µM
9 | COc1cc2c3c(c1OC)C1(C=CC(=O)C=C1)CC3N(C(=O)OC(C)(C)C(Cl)(Cl)Cl)CC2 (stereo not given) |  | 28.8 µM |  | 33.1 |  | 23.2 µM |  | 28.5 µM |  | 31.8 µM |  | 43.1 µM |  | 23.6 µM |  | 24.4 µM |  | > 100 µM |  | 34.5 µM
10 | NC(=O)c1ncn(C2CCC(CP(=O)(O)O)C2)c1N (stereo not given) |  | > 100 µM |  | > 100 |  | > 100 µM |  | > 100 µM |  | > 100 µM |  | > 100 µM |  | > 100 µM |  | > 100 µM |  | > 100 µM |  | > 100 µM
11 | COC(=O)c1ccc2c(c1)[n+](=O)c(C(C)=O)c(C(F)(F)F)n2[O-] | 1.75 µM | 3.2 µM | 1.95 µM | 3.65 | 1.76 µM | 3.19 µM | 1.71 µM | 3.15 µM | 1.76 µM | 3.24 µM | 1.95 µM | 3.83 µM | 1.83 | 3.52 µM | 1.73 µM | 3.25 µM | 2.77 µM | 6.05 µM | 1.4 µM | 2.71 µM
12 | NS(=O)(=O)OC[C@H]1O[C@@H](n2cnc3c(N[C@H]4CCc5ccccc54)ncnc32)[C@H](O)[C@@H]1O | 0.226 µM | 2.35 µM | 0.0285 µM | 0.0863 | 0.525 µM | 2.58 µM | 1.41 µM | 2.88 µM | 0.122 µM | 0.449 µM | 0.245 µM | 5.82 µM | 0.857 | 7.14 µM | 0.327 µM | 5.55 µM | 0.608 µM | 3.24 µM | 0.358 µM | 1 µM
13 | Nc1ncnc2c1ncn2C1OC(CO)C(O)C1O (stereo not given) | 32.2 µM | > 100 µM | > 100 µM and 213 µM and 25.5 µM | > 373 |  | > 450 µM |  | > 450 µM | 38.7 µM | > 450 µM | 19.3 µM | > 450 µM |  | > 100 µM and > 450 µM and 62 µM |  | > 450 µM | 41.1 µM | > 100 µM | 11.6 µM | > 100 µM and 331 µM and 38.2 µM
14 | O=C(/C=C(\O)C(=O)O)/C=C(\O)c1ccc(Cl)cc1 |  | > 100 µM |  | > 100 |  | > 100 µM |  | > 100 µM |  | > 100 µM |  | > 100 µM |  | > 100 µM |  | > 100 µM |  | > 100 µM |  | > 100 µM
15 | CCCCCc1c(C)[nH]c(/C=C2\N=C(c3ccc[nH]3)C=C2Oc2ccc(OC)cc2)c1C | 0.167 µM and 0.0234 µM | 0.458 µM and 0.0635 µM | 0.118 µM and 0.139 µM |  | 0.0555 µM and 0.0314 µM | 0.622 µM and 0.185 µM | 0.151 µM and 0.0712 µM | 0.313 µM and 0.232 µM | 0.154 µM and 0.0526 µM | 1.92 µM and 1.46 µM | 0.0587 µM and 0.0252 µM | 1.53 µM and 0.518 µM | 0.113 | 0.759 µM | 0.068 µM and 0.0214 µM | 1.94 µM and 1.26 µM | 0.335 µM and 0.0439 µM | 1.69 µM and 0.331 µM | 0.204 µM and 0.0328 µM | 0.559 µM and 0.316 µM
16 | Cc1cc(CC(O)(C(F)(F)F)C(F)(F)F)cc(CC(O)(C(F)(F)F)C(F)(F)F)n1 |  | 12 µM |  | 8.13 |  | 5.13 µM |  | 4.02 µM |  | 10.1 µM |  | > 100 µM |  | 12.6 µM |  | 7.79 µM |  | 13.6 µM |  | 6.58 µM
17 | NC(=O)NC1=NCCC(=O)N1CCc1c[nH]c2ccccc12 |  | 29.3 µM |  | 39.9 |  | 52.4 µM |  | 31.8 µM |  | 47 µM |  | 57.7 µM |  | 73 µM |  | 47.3 µM |  | 48.6 µM |  | 44.5 µM
